Where two headings read alike, the source gives them in different places.
Tests used:
[1] = system: MDA-MB231-luc-D3H2LN cells; assay: Toxicity assay under normal cell culture conditions (MTS), MDA cells; assay type: cell-based, human; details: for toxicity on MDA-MB231 compared to comparative compound (in words): 1 vs C88 (112), 3 vs 583, 4 vs 585; for MDA tox: 50% tox. at (μM) av: MDA-MB231-luc-D3H2LN cells, MEM+10% FBS, 72 h incubation, MTS
In short: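 Under normal culture conditions (MEM with 10% FBS), MDA-MB231-luc-D3H2LN cells (2000/well) were exposed to compound concentration series for 72 h. Viability measured by MTS assay. Value is the concentration giving 50% toxicity.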

human PBMC = assay: Toxicity assay under normal cell culture conditions (MTS), PBMC; assay type: cell-based; details: for toxicity on PBMC compared to comparative compound (in words): 1 vs C88 (112), 3 vs 583, 4 vs 585; for PBMC tox.: 50% tox. at (μM) av: human PBMC, RPMI+10% FBS+IL-2, 72 h incubation, MTS
In short: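 Human PBMC (75000/well) in RPMI + 10% FBS + IL-2 were exposed to compounds for 72 h, with viability read by MTS. Concentration-response curves gave the concentration producing 50% toxicity.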

[2] = system: MDA-MB231-luc-D3H2LN cells; assay: Invasion of MDA-MB231-D3H2LN cells into collagen (example 15 = procedure 2, 48 h drug pre-incubation); assay type: cell-based; details: for invasiveness inhibition compared to comparative compound (in words): 1 vs C88 (112), 4 vs 585
In short: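 Cells embedded at the bottom of collagen gels were pre-treated 48 h with compound in 0.025% FBS, then stimulated with 5% FBS for 24 h at 37° C. Nuclei were imaged at 0, 25 and 50 µm to give mean invasion distance, with MTS viability also measured. Value is the concentration giving 50% of the effect of 10 µM Y-27632.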

[3] = system: MDA-MB231-luc-D3H2LN cells; assay: Viability (MTS) assay on the cells in collagen under invasion assay conditions; assay type: cell-based, human; details: loss of viability at the concentration giving 0.5 × effect of 10 μM Y-27632, invasion assay conditions
In short: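 Run on cells embedded in collagen after a further 24 h, on serum-starved cells and in parallel on cells in 10% FBS. MTS reagent 3–4 h at 37 °C, absorbance at 490 nm; background-corrected signals expressed as % of untreated control.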

hERG channel = biological target: T1, hERG channel (Homo sapiens, UniProt Q12809); assay: hERG channel inhibition (electrophysiology, hERG-transfected HEK293 cells); assay type: cell-based; details: for % hERG inhibition in transfected HEK (n = 3) at 1 μM av: 1 μM compound; for % hERG inhibition in transfected HEK (n = 3) at 10 μM av: 10 μM compound; for hERG inhibition compared to comparative compound (in words): 1 vs C88 (112), 3 vs 583, 4 vs 585
T1 construct: host or cells: HEK293
T1 sequence (Q12809 whole entry): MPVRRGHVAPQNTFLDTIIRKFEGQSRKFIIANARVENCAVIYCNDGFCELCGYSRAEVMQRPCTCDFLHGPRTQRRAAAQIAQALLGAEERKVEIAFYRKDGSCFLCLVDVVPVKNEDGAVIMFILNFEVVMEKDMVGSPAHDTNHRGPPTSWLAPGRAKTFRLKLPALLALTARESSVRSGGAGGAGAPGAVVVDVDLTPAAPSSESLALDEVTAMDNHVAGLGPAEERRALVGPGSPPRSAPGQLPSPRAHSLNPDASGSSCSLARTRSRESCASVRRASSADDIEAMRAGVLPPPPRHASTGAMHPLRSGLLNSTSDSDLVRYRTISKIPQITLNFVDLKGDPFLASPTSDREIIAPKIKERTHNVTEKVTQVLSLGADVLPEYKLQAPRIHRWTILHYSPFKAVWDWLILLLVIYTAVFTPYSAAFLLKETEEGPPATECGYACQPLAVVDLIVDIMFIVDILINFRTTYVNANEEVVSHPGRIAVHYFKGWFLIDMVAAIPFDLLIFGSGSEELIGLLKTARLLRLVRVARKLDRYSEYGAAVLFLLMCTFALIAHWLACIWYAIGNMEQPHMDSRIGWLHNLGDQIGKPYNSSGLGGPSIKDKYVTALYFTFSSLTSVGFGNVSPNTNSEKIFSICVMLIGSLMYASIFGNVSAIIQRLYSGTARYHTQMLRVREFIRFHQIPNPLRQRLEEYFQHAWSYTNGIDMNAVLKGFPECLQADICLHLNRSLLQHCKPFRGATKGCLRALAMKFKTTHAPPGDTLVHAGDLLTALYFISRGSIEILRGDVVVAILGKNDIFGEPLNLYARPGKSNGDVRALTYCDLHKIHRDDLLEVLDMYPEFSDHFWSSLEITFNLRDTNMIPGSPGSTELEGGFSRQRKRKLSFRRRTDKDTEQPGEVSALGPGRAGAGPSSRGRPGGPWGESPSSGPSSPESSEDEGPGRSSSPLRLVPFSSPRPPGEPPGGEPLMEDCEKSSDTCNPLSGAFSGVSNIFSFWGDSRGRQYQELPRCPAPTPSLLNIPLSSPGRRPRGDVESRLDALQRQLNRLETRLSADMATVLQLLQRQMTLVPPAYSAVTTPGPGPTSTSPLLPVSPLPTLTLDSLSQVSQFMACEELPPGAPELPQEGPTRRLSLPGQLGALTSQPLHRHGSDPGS
Procedure: Performed by Porsolt & Partners (Z. A. de Glatigné, 53940 Le Genest-Saint-Isle, France). Briefly, each 3 hERG-transfected HEK293 cells were superfused with the compounds at 1 and 10 μM, and the hERG channel current was measured by electrophysiology, as described by Crumb et al., J. Pharmacol. Exp. Ther. 2000.

[4] = system: MDA-MB231-luc-D3H2LN cells; assay: Invasion of MDA-MB231-D3H2LN cells into collagen (procedure 1, 24 h drug incubation); assay type: cell-based, human
Procedure: It is to be noted that both Procedures 1 and 2 are invasion assays to test effect of drug compounds on invasion. They are both fully identical except for the time of incubation with the drug.
Here, invasion (into collagen) is the number of cells per valid field at 50 μm fold inhibitory effect compared to 10 μM Y-27632.
Standard Operating Procedure 1:
Said procedure is as described in example 15 except with respect to (i) the last step during day 1 “preparation of the invasion assay” and “treatment with the drugs” and days 2 and 3 which are detailed hereinafter and (ii) the fact that no concentration nor toxicity is determined at the end.
add each 33 μl/well of the 4× concentrated drug solutions in MEM+0.1% FBS to the corresponding wells in all three plates, according to the plate maps above
incubate 24 h at 37° C./5% CO2
The analysis as performed in day 5 in example 15 is performed exactly under the same conditions in day 3 in the framework of the present procedure 1.

[5] = concentration giving 50% of the anti-invasive effect of 10 μM Y-27632, 48 h pre-incubation, 24 h with 5% FBS, read-out: MDA: Inhib. of invasion: 0.5 × eff. of 10 μM Y-27632 at (μM) av

Structure (SMILES)	toxicity on MDA-MB231 compared to comparative compound (in words) [1]	MDA tox: 50% tox. at (μM) av [1] [µM]	toxicity on PBMC compared to comparative compound (in words) (human PBMC)	PBMC tox.: 50% tox. at (μM) av (human PBMC) [µM]	invasiveness inhibition compared to comparative compound (in words) [2]	IC50 ([2]; Homo sapiens, procedure 2, second set of experiments, read-out: Invasion Av.: concentration of the compound necessary to reach 50% of the inhibition effect compared to 10 μM Y-27632) [µM]	IC50 [2, 5] [µM]	anti-invasive activity (in words) ([2]; second set of experiments, procedure 2 (example 15))	(+ MDA tox. under these cond.) % tox [3] [%]	% hERG inhibition in transfected HEK (n = 3) at 1 μM av (hERG channel) [%]	% hERG inhibition in transfected HEK (n = 3) at 10 μM av (hERG channel) [%]	hERG inhibition compared to comparative compound (in words) (hERG channel)	anti-invasive activity (in words) ([4]; first set of experiments, procedure 1)	Invasion av.: number of cells per valid field at 50 μm, fold inhibitory effect compared to 10 μM Y-27632 ([4]; procedure 1, first set of experiments)
CCN(CC)CCCNC(=O)c1cccc(Nc2cccc(C(=O)Nc3ccncc3)c2)c1 [Compound 1, N-(3-(diethylamino)propyl)-3-((3-(pyridin-4-ylcarbamoyl)phenyl)amino)benzamide]	less toxic	46	less toxic	51	more potent	0.13	0.13	anti-invasive activity is detected	<10	13	47	less hERG inhibition		
O=C(NCCCN1CCOCC1)c1cccc(Nc2cccc(C(=O)Nc3ccncc3)c2)c1 [Compound 3, N-(3-morpholinopropyl)-3-((3-(pyridin-4-ylcarbamoyl)phenyl)amino)benzamide]	less toxic	51	less toxic	51			0.29		<10	14	54	less hERG inhibition		
O=C(NCCCN1CCCC1)c1cccc(Nc2cccc(C(=O)Nc3ccncc3)c2)c1 [Compound 4, N-(pyridin-4-yl)-3-((3-((3-(pyrrolidin-1-yl)propyl)carbamoyl)phenyl)amino)benzamide]	less toxic	54	less toxic	42	more potent		0.21		<10	6	59	less hERG inhibition		
CCN(CC)CCCNS(=O)(=O)c1cccc(Nc2cccc(C(=O)Nc3ccncc3)c2)c1 [Compound 5, 3-((3-(N-(3-(diethylamino)propyl)sulfamoyl)phenyl)amino)-N-(pyridin-4-yl)benzamide]		68		74			1.31		<10	1	29			
O=C(Nc1ccncc1)c1cccc(Nc2cccc(S(=O)(=O)NCCCN3CCCCC3)c2)c1 [Compound 9, 3-((3-(N-(3-(piperidin-1-yl)propyl)sulfamoyl)phenyl)amino)-N-(pyridin-4-yl)benzamide]		44		36			0.28		<10	5	50			
O=C(Nc1ccncc1)c1cccc(Nc2cccc(S(=O)(=O)NCCCN3CCOCC3)c2)c1 [Compound 12, 3-((3-(N-(3-morpholinopropyl)sulfamoyl)phenyl)amino)-N-(pyridin-4-yl)benzamide]		60		54			0.46		<10	11	55			
CCN(CC)CCCNC(=O)c1cccc(Nc2cccc(C(=O)Nc3ccncc3)c2)n1 [Compound 35, N-(3-(diethylamino)propyl)-6-((3-(pyridin-4-ylcarbamoyl)phenyl)amino)picolinamide]		59		128			0.55		<10	4	30			
CCN(CC)CCCNC(=O)c1cccc(Nc2cccc(C(=O)Nc3ccncn3)c2)n1 [Compound 40, N-(3-(diethylamino)propyl)-6-((3-(pyrimidin-4-ylcarbamoyl)phenyl)amino)picolinamide]		73		>100			0.75		<10	26	59			
CCN(CC)CCCNC(=O)c1ccnc(Nc2cccc(C(=O)Nc3ccncn3)c2)c1 [Compound 41, N-(3-(diethylamino)propyl)-2-((3-(pyrimidin-4-ylcarbamoyl)phenyl)amino)isonicotinamide]		≥80		>100			1.5		<10	8	53			
O=C(NCCCN1CCOCC1)c1cccc(Nc2cccc(/C=C/c3ccncc3)c2)c1 [Compound 583, reference compound]		21		18			0.25		<10	36	74			
O=C(NCCCN1CCCC1)c1cccc(Nc2cccc(/C=C/c3ccncc3)c2)c1 [Compound 585, reference compound]		10		9			0.3		<10	42	77			
CCN(CC)CCCNC(=O)c1cccc(Nc2cccc(NC(=O)c3cccnc3)c2)c1 [FMMB46.1]													no effect was observed	0.02

Reference: patent publication US9969715B2, “Compounds useful for treating cancer” (ABIVAX, priority 2012, dated 2018)
